Measurements: US9850203B2, “Autotaxin inhibitor compounds” (PharmAkea, Inc., priority 2013, dated 2017)

Biological target: human autotaxin (ATX) (Homo sapiens (Human), UniProt Q13822)
Assay: Human Autotaxin Assay
Assay type: biochemical
Conditions: concentrated conditioned media from Hep3B cells; LPC substrate, choline release
How it was run: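 Autotaxin source: Hep3B conditioned medium concentrated 20-fold, preincubated with compound 15 min at 37° C in lyso-PLD buffer (100 mM Tris pH 9, 500 mM NaCl, 5 mM MgCl2, 5 mM CaCl2, 0.05% Triton X-100, ±0.2% fatty-acid-free HSA). 100 uM LPC (14:0) then added, 1.5-3 hours at 37° C; choline release measured.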

SMILES	IC50 [nM]
Cc1ccc2c(c1)CCN2C(=O)Cn1c(C)c(Sc2cccc(C(=O)O)c2)c2ccc(Cl)c(F)c21 [Compound 1-92, 3-((6-Chloro-7-fluoro-2-methyl-1-(2-(5-methylindolin-1-yl)-2-oxoethyl)-1H-indol-3-yl)thio)benzoic acid]	≤ 500
Cc1c(Sc2cccc(C(=O)O)c2)c2ccc(Cl)c(F)c2n1CC(=O)N1CCC(Cc2cnn(C)c2)C1 (stereo not shown) [Compound 1-93, 3-((6-Chloro-7-fluoro-2-methyl-1-(2-(3-((1-methyl-1H-pyrazol-4-yl)methyl)pyrrolidin-1-yl)-2-oxoethyl)-1H-indol-3-yl)thio)benzoic acid]	≤ 500
Cc1c(Sc2cccc(C(=O)O)c2)c2ccc(Cl)c(F)c2n1CC(=O)N1CCC2(CC2)C1 [Compound 1-95, 3-((6-Chloro-7-fluoro-2-methyl-1-(2-oxo-2-(5-azaspiro[2.4]heptan-5-yl)ethyl)-1H-indol-3-yl)thio)benzoic acid]	≤ 500
Cc1c(Sc2cccc(C(=O)O)c2)c2ccc(Cl)c(F)c2n1CC(=O)N1CCC(c2cnn(C)c2)C1 (stereo not shown) [Compound 1-96, 3-((6-Chloro-7-fluoro-2-methyl-1-(2-(3-(1-methyl-1H-pyrazol-4-yl)pyrrolidin-1-yl)-2-oxoethyl)-1H-indol-3-yl)thio)benzoic acid]	≤ 500
Cc1c(Sc2cccc(C(=O)O)c2)c2ccc(Cl)c(F)c2n1CC(=O)N1CCc2ccncc21 [Compound 1-97, 3-((6-Chloro-1-(2-(2,3-dihydro-1H-pyrrolo[2,3-c]pyridin-1-yl)-2-oxoethyl)-7-fluoro-2-methyl-1H-indol-3-yl)thio)benzoic acid]	≤ 500
Cc1c(Sc2cccc(C(=O)O)c2)c2ccc(Cl)c(F)c2n1CC(=O)N1CC2CCCCC2C1 (stereo not shown) [Compound 1-98, 3-((6-Chloro-7-fluoro-1-(2-(hexahydro-1H-isoindol-2(3H)-yl)-2-oxoethyl)-2-methyl-1H-indol-3-yl)thio)benzoic acid]	≤ 500
Cc1c(Sc2cccc(C(=O)O)n2)c2ccc(Cl)c(F)c2n1CC(=O)N1CCc2ccccc21 [Compound 2-3]	≤ 500
Cc1c(Sc2cccc(C(=O)O)n2)c2ccc(Cl)c(F)c2n1CC(=O)N1CC2(CC2)c2ccccc21 [Compound 2-54, 6-((6-Chloro-7-fluoro-2-methyl-1-(2-oxo-2-(spiro[cyclopropane-1,3′-indolin]-1′-yl)ethyl)-1H-indol-3-yl)thio)picolinic acid]	≤ 500
Cc1c(Sc2cccc(C(=O)O)c2F)c2ccc(Cl)c(F)c2n1CCN1CCc2ccccc21 [Compound 2-73, Sodium 3-((6-chloro-7-fluoro-1-(2-(indolin-1-yl)ethyl)-2-methyl-1H-indol-3-yl)thio)-2-fluorobenzoate]	≤ 500

More lines, now with the values ahead:

IC50 [nM]	SMILES
≤ 500	Cc1c(Sc2cccc(C(=O)O)c2F)c2ccc(Cl)c(F)c2n1CC(=O)N1CC2(CC2)c2ccccc21 [Compound 2-55, 3-((6-Chloro-7-fluoro-2-methyl-1-(2-oxo-2-(spiro[cyclopropane-1,3′-indolin]-1′-yl)ethyl)-1H-indol-3-yl)thio)-2-fluorobenzoic acid]
≤ 500	Cc1c(Sc2cccc(C(=O)O)c2F)c2ccc(Cl)c(F)c2n1CC(=O)N1CCc2ccncc21 [Compound 2-60, 3-((6-Chloro-1-(2-(2,3-dihydro-1H-pyrrolo[2,3-c]pyridin-1-yl)-2-oxoethyl)-7-fluoro-2-methyl-1H-indol-3-yl)thio)-2-fluorobenzoic acid]
≤ 500	Cc1c(Sc2cccc(C(=O)O)c2F)c2ccc(Cl)c(F)c2n1CC(=O)N1CCC(C)(O)C1 (stereo not shown) [Compound 2-61, 3-((6-Chloro-7-fluoro-1-(2-(3-hydroxy-3-methylpyrrolidin-1-yl)-2-oxoethyl)-2-methyl-1H-indol-3-yl)thio)-2-fluorobenzoic acid]
≤ 500	Cc1c(Sc2cccc(C(=O)O)c2F)c2ccc(Cl)c(F)c2n1CC(=O)N1CC(O)(C2CC2)C1 [Compound 2-63, 3-((6-Chloro-1-(2-(3-cyclopropyl-3-hydroxyazetidin-1-yl)-2-oxoethyl)-7-fluoro-2-methyl-1H-indol-3-yl)thio)-2-fluorobenzoic acid]
≤ 500	Cc1c(Sc2cccc(C(=O)O)c2F)c2ccc(Cl)c(F)c2n1CC(=O)N1CC[C@@H](CO)C1 [Compound 2-64, (R)-3-((6-Chloro-7-fluoro-1-(2-(3-(hydroxymethyl)pyrrolidin-1-yl)-2-oxoethyl)-2-methyl-1H-indol-3-yl)thio)-2-fluorobenzoic acid]
≤ 500	Cc1c(Sc2cccc(C(=O)O)c2F)c2ccc(Cl)c(F)c2n1CC(=O)N1C[C@H](O)[C@@H](N2CCOCC2)C1 [Compound 2-65, 3-((6-Chloro-7-fluoro-1-(2-((3S,4S)-3-hydroxy-4-morpholinopyrrolidin-1-yl)-2-oxoethyl)-2-methyl-1H-indol-3-yl)thio)-2-fluorobenzoic acid]
≤ 500	Cc1c(Sc2cccc(C(=O)O)c2F)c2ccc(Cl)c(F)c2n1CC(=O)N1C[C@@H](O)[C@H](F)C1 [Compound 2-66, 3-((6-Chloro-7-fluoro-1-(2-((3R,4R)-3-fluoro-4-hydroxypyrrolidin-1-yl)-2-oxoethyl)-2-methyl-1H-indol-3-yl)thio)-2-fluorobenzoic acid]
≤ 500	Cc1c(Sc2cccc(C(=O)O)c2F)c2ccc(Cl)c(F)c2n1CC(=O)N1CC(C#N)C1 [Compound 2-67, 3-((6-Chloro-1-(2-(3-cyanoazetidin-1-yl)-2-oxoethyl)-7-fluoro-2-methyl-1H-indol-3-yl)thio)-2-fluorobenzoic acid]
≤ 500	Cc1c(Sc2cccc(C(=O)O)c2F)c2ccc(Cl)c(F)c2n1CC(=O)N1CCC(O)(c2ccccc2)C1 (stereo not shown) [Compound 2-68, 3-((6-Chloro-7-fluoro-1-(2-(3-hydroxy-3-phenylpyrrolidin-1-yl)-2-oxoethyl)-2-methyl-1H-indol-3-yl)thio)-2-fluorobenzoic acid]
≤ 500	Cc1c(Sc2cccc(C(=O)O)c2F)c2ccc(Cl)c(F)c2n1CC(=O)N1C[C@H](O)[C@@H](N(C)C)C1 [Compound 2-69, 3-((6-Chloro-1-(2-((3S,4S)-3-(dimethylamino)-4-hydroxypyrrolidin-1-yl)-2-oxoethyl)-7-fluoro-2-methyl-1H-indol-3-yl)thio)-2-fluorobenzoic acid]
≤ 500	Cc1c(Sc2cccc(C(=O)O)c2F)c2ccc(Cl)c(F)c2n1CC(=O)N1C[C@H](O)[C@@H](N2CCN(C)CC2)C1 [Compound 2-70, 3-((6-Chloro-7-fluoro-1-(2-((3S,4S)-3-hydroxy-4-(4-methylpiperazin-1-yl)pyrrolidin-1-yl)-2-oxoethyl)-2-methyl-1H-indol-3-yl)thio)-2-fluorobenzoic acid]
≤ 500	Cc1c(Sc2cccc(C(=O)O)c2F)c2ccc(Cl)c(F)c2n1CC(=O)N1CC(CN(C)C)C1 [Compound 2-71, 3-((6-Chloro-1-(2-(3-((dimethylamino)methyl)azetidin-1-yl)-2-oxoethyl)-7-fluoro-2-methyl-1H-indol-3-yl)thio)-2-fluorobenzoic acid]
≤ 500	Cc1c(Sc2cccc(C(=O)O)c2F)c2ccc(Cl)c(F)c2n1CC(=O)N1CCC2(C1)OCCO2 [Compound 2-72, 3-((6-Chloro-7-fluoro-2-methyl-1-(2-oxo-2-(1,4-dioxa-7-azaspiro[4.4]nonan-7-yl)ethyl)-1H-indol-3-yl)thio)-2-fluorobenzoic acid]
